Reference: patent US6541203B2, “Detecting structural or synthetic information about chemical compounds” (President and Fellows of Harvard College, priority 1998, dated 2003)

Columns and labels:
RNA molecules = conditions: specific RNA molecules; cited from earlier work
anti-dig = experiment: Detection of hapten on TANTAGEL beads with anti-dig and AP-coupled secondary antibody; format: binding, mouse; conditions: 100% coupling on the beads
Description: Ninety (90) micrometer TANTAGEL-amine beads were mixed with dig-NHS ester at different concentrations to covalently label the beads with dig. Dig-NHS was added in amounts sufficient to label 100%, 10%, 1%, 0.1%, 0.01% and 0.001% of the amino groups. The remaining amino groups were capped with acetic anhydride, and the beads were washed.
Dig-labeled beads were incubated with anti-dig (1 microgram/ml) in the presence of BSA and buffer. The beads were washed, incubated with alkaline phosphatase (AP)-coupled goat anti-mouse antibody, and washed again. Then a chromogenic precipitating substrate (commercially available) for detecting AP was added. Blue color on the beads indicates the presence of AP, and thus effective detection of the dig hapten by antibody.

For `N=C(N)NCCC[C@@H](N)C(=O)O` [D-arginine], the Kd (RNA molecules) is given as 1700 nM.
In the case of `c1cc2ccc3cccc4ccc(c1)c2c34` [pyrene], the Staining of beads (anti-dig) is reported as “no staining”.
